Read-outs that look alike come from different tables or passages of the source.
Key:
KRAS-G12C/SOS1 = KRAS-G12C/SOS1 (Homo sapiens (Human), UniProt Q07889); assay: Detection of inhibitory effects of compounds on KRAS-G12C/SOS1 (KRASG12C/SOS binding kit, HTRF); conditions: Em665/620, read-out: IC50, inhibitory activity on interaction of KRAS-G12C/SOS1
Text: Experimental objective: The inhibitory effects of the tested compounds on KRAS-G12C/SOS1 were detected. IC50 was used to characterize the inhibitory ability of the compounds on the KRAS-G12C/SOS1. The lower IC50 value indicated the stronger inhibitory ability. BI-3406 was used as a positive control compound.
Experimental reagents: KRASG12C/SOS binding kit (Cisbio, cat. 63ADK000CB16PEG); DMSO (Sigma, cat. D8418-1L); and 384-well white plate (PerkinElmer, cat. 6007290)
• 1. Preparation of compounds: the test compounds were dissolved in 100% DMSO to obtain 10 mM stock solutions and the stock solutions were stored in a refrigerator in the dark. • 2. Kinase reaction process:
Preparation of compounds: the test compounds had the concentration of 5,000 nM and diluted in a 384-well plate into a 100% DMSO solution at the 200-fold final concentration, and the compounds were diluted 3-fold with 10 concentrations. 50 nL of the compounds at the 200-fold final concentration were transferred to the plate of interest, the 384-well plate, using a dispenser Echo 550. 50 nL of 100% DMSO was added to each negative control well and positive control well.
A Tag1-SOS1 solution at the 4-fold final concentration was prepared using a diluent buffer.
2.5 μL of the Tag1-SOS1 solution at the 4-fold final concentration was added to the 384-well plate.
A Tag2-KRAS-G12C solution at the 4-fold final concentration was prepared using the diluent buffer.
2.5 μL of the Tag2-KRAS-G12C solution at the 4-fold final concentration was respectively added into compound wells and the positive control wells; and 2.5 μL of the diluent buffer was added to the negative control wells.
The 384-well plate was centrifuged at 1,000 rpm for 30 seconds, shaken and mixed uniformly, and incubated at room temperature for 15 minutes.
An Anti-Tag1-TB3+ solution at the 1-fold final concentration and an Anti-Tag2-XL665 solution at the 1-fold final concentration were prepared using a detection buffer, the two solutions were mixed uniformly to obtain a Mix solution, and 5 μL of the Mix solution was added into each well.
The 384-well plate was centrifuged at 1,000 rpm for 30 seconds, shaken and mixed uniformly, and incubated at 4° C. for 120 minutes.
Em665/620 was read using an Envision microplate reader.
Inhibition %=(Max signal−Compound signal)/(Max signal−Min signal)×100 Calculation formula • wherein the Min signal was the mean value of the negative control wells, and the Max signal was the mean value of the positive control wells.
A dose-response curve was fitted using the log value of the concentration as an X axis and the percentage of the inhibitory rate as a Y axis by using the log(inhibitor) vs. response-variable slope of an analytical software GraphPadPrism5, thereby obtaining the IC50 value of each compound on an enzyme activity.

p-ERK of PC-9 cells = assay: p-ERK HTRF assay in PC-9 cells; format: cell-based; conditions: PC-9 lung cancer cells, 1 hour treatment, read-out: IC50, inhibitory activity on p-ERK of PC-9 cells
Experimental: IC50 Values of Compounds Determined by p-ERK HTRF Assay in PC-9 Cells
Experimental objective: an inhibitory effect of the test compounds on the phosphorylation of PC-9ERK of lung cancer cells at a cellular level was evaluated by detecting the phosphorylation of ERK.
• PRMI 1640 medium (Invitrogen-11875093) • 0.25% pancreatin (Invitrogen-25200056) • Phosphoric acid buffer salt solution (PBS, pH 7.4) (Invitrogen-10010023) • Double-antibody (PS) (Invitrogen-15140122) • Fetal bovine serum (FBS) (Gibco-10091148) • Trypan blue (Gibco-15250061) • 10-cm culture dish (Corning-430167) • 10-mL pipette (Costar-4488) • Pipettor (Sartorius-17009031) • 15-mL centrifuge tube (Corning-430052) • 50-mL centrifuge tube (Corning-430829) • Cryotube (Thermo-377267) • 1.5-mL EP tube (Axygen-MCT-150-C-S) • Cell incubator (Thermo-371) • Microscope (Olympus-CKX41) • Centrifuge (Flying Pigeon-TDL-80-2B) • Cell counter (Countstar-IC-1000) • Envision (Perkin Elmer) • Spark 10M (TECAN) • Phospho-ERK1/2 (Thr202/Tyr204) Experimental kit (Cisbio, Cat. No. 64AERPEG) • PC-9 cells: RPMI1640+10% FBS+1% PS
• 1) PBS, 0.25% pancreatin, and a cell culture medium were placed in a water-bath kettle at 37° C. for preheating; • 2) cells were observed under a microscope, a fusion degree was evaluated, and no bacterial and fungi pollution was confirmed; • 3) a culture solution was removed, the cells were washed with 5 mL of PBS and digested with 2 mL of the 0.25% trypsin, the digestion was terminated with 10 mL of the fresh cell culture medium, a culture dish was rinsed, and the cells were transferred to a 15-mL centrifuge tube; • 4) the collected cells were centrifuged at 1,000 rpm for 5 minutes; • 5) after the centrifugation, the supernatant was discarded, the cells were resuspended in 5 mL of the cell culture medium, 20 μL of the resuspended cells were aspirated, and the number and viability of viable cells were recorded; • 6) the cell culture medium was used and the cell density was adjusted (PC-9:10,000 cells/well, and 45 μL per well); • 7) in a 384-well plate, 45 μL of a cell suspension per well was transferred according to an experimental design figure; and • 8) the cells were incubated overnight at 37° C. and 5% CO2.
• 1) The compounds were diluted from the stock concentration to 10 mM with 100% DMSO (Trametinib was diluted to 1 mM), then 3-fold diluted into 10 points (5 μL of the diluted compounds with the concentration of 10 mM were transferred to 10 μL of the DMSO in an LDV plate), and centrifuged at 1,000 rpm/min for 1 minute; • 2) 5 μL of the diluted compounds of step 1) were transferred to an inter plate 1 containing 45 μL of the cell culture medium (the compounds were diluted from 1,000× to 100×); • 3) 5 μL of the diluted compounds of step 2) were transferred to an inter plate 2 containing 45 μL of the cell culture medium (the compounds were diluted from 100× to 10×); • 4) 5 μL of the compounds were pipetted from the inter plate 2 into a cell culture plate (the compounds were diluted from 10 folds to 1 fold), the final concentrations of the test compounds were 10,000 nM, 3333.33 nM, 1111.11 nM, 370.37 nM, 123.46 nM, 41.15 nM, 13.72 nM, 4.57 nM, 1.52 nM, and […], the solution was centrifuged at 1,000 rpm/min for 1 minute, and the final content of the DMSO was 0.1%; and • 5) the cells were treated in an incubator at 37° C. for 1 hour. […]

Chain of KRAS-G12C/SOS1 (Q07889 whole entry, stated change not applied): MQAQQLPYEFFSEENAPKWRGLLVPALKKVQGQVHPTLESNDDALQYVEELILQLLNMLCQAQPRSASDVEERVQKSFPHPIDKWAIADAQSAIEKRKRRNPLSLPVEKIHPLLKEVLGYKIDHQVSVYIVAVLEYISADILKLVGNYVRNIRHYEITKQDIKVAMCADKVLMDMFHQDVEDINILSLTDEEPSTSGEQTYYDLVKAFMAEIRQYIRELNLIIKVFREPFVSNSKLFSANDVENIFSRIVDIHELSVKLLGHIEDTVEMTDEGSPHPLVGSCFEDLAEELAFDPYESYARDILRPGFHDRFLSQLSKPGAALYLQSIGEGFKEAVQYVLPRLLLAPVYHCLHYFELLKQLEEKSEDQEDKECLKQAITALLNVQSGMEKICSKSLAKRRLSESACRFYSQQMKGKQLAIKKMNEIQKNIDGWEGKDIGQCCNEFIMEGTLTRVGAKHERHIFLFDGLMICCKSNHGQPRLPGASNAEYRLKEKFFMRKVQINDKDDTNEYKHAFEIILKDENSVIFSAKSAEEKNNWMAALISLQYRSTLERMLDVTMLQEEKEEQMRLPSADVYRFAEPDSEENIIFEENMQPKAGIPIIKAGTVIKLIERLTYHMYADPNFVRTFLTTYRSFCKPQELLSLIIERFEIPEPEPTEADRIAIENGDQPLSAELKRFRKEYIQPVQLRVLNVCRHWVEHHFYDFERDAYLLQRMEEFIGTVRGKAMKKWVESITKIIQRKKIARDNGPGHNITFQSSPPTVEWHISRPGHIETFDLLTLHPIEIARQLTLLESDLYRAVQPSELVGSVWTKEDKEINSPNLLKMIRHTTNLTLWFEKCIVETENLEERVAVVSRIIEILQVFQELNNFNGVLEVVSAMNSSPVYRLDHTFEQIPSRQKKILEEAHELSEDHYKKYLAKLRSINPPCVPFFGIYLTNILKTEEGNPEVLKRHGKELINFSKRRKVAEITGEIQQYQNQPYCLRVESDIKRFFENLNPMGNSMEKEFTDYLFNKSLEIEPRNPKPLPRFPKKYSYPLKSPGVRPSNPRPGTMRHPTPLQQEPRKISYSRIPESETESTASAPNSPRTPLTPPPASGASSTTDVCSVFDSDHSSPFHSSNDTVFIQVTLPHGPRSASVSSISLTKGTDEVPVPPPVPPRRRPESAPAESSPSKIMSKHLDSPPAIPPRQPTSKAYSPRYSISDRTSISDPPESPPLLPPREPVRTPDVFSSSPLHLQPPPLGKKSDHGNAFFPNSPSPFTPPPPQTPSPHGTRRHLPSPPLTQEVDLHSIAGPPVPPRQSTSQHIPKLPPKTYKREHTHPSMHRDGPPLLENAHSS

Row | IC50 (KRAS-G12C/SOS1) | IC50 (p-ERK of PC-9 cells; Homo sapiens, PC-9, 1 h) | IC50 (p-ERK of PC-9 cells) | Compound
1 | ≤ 100 nM | 300 to 1000 nM |  | C[C@@H](Nc1ccnc2cnc(C3(O)CCC(O)CC3)cc12)c1cccc(C(F)(F)F)c1F (single isomer, unassigned) [Compound B-85-P1]
2 | ≤ 100 nM |  | ≤ 300 nM | C[C@@H](Nc1ccnc2cnc(C3(O)CCC(O)CC3)cc12)c1cccc(C(F)(F)F)c1F (single isomer, unassigned) [Compound B-85-P2]
3 | 100 to 500 nM | > 1000 nM |  | C[C@@H](Nc1ccnc2cnc(C3(O)CCC(O)CC3)cc12)c1cccc(C(C)(F)F)c1F (single isomer, unassigned) [Compound B-87-P1]
4 | 100 to 500 nM |  | > 1000 nM | C[C@@H](Nc1ccnc2cnc(C3(O)CCC(O)CC3)cc12)c1cccc(C(C)(F)F)c1F (single isomer, unassigned) [Compound B-87-P2]
5 | ≤ 100 nM | 300 to 1000 nM |  | Cc1cc(N[C@H](C)c2cccc(C(F)F)c2F)c2cc(C3(O)CCC(O)CC3)ncc2n1 (single isomer, unassigned) [Compound B-88-P2]
6 | ≤ 100 nM | ≤ 300 nM |  | C[C@@H](Nc1ccnc2cnc(C3(O)CCC(N(C)C)CC3)cc12)c1cccc(C(F)F)c1F (single isomer, unassigned) [Compound B-94-P2]
7 | ≤ 100 nM | 300 to 1000 nM |  | C[C@@H](Nc1ccnc2cnc(C3(O)CCC(N4CCNCC4)CC3)cc12)c1cccc(C(F)F)c1F (single isomer, unassigned) [Compound B-97-P2]
8 | 100 to 500 nM |  | > 1000 nM | C[C@@H](Nc1ccnc2cnc(C3(O)CCC(C(C)(C)O)CC3)cc12)c1cccc(C(F)(F)F)c1F (single isomer, unassigned) [Compound B-115-P1]
9 | ≤ 100 nM |  | ≤ 300 nM | C[C@@H](Nc1ccnc2cnc(C3(O)CCC(C(C)(C)O)CC3)cc12)c1cccc(C(F)(F)F)c1F (single isomer, unassigned) [Compound B-115-P2]
10 | ≤ 100 nM |  | > 1000 nM | COc1nc(C2(O)CCC(O)CC2)cc2c(N[C@H](C)c3cccc(C(F)F)c3F)ccnc12 (single isomer, unassigned) [Compound B-178-P1]
11 | ≤ 100 nM |  | ≤ 300 nM | COc1nc(C2(O)CCC(O)CC2)cc2c(N[C@H](C)c3cccc(C(F)F)c3F)ccnc12 (single isomer, unassigned) [Compound B-178-P2]
12 | ≤ 100 nM | ≤ 300 nM |  | CC(=O)N1CCC(c2cc(F)c3nccc(N[C@H](C)c4cccc(C(F)F)c4F)c3c2)CC1 [Compound A-99]
13 | ≤ 100 nM | ≤ 300 nM |  | CC(=O)N1CCN(c2cc(F)c3nccc(N[C@H](C)c4cccc(C(F)F)c4F)c3c2)CC1 [Compound A-100]
14 | ≤ 100 nM | 300 to 1000 nM |  | COc1c(C2=CCN(C(C)=O)CC2)cc2c(N[C@H](C)c3cccc(C(F)F)c3F)ccnc2c1F [Compound A-101]
15 | ≤ 100 nM | ≤ 300 nM |  | COc1c(N2CCN(C(C)=O)CC2)cc2c(N[C@H](C)c3cccc(C(F)F)c3F)ccnc2c1F [Compound A-102]
16 | ≤ 100 nM | 300 to 1000 nM |  | C[C@@H](Nc1ccnc2cnc(C3CC3)cc12)c1cccc(C(F)F)c1F [Compound B-1]

Row | IC50 (KRAS-G12C/SOS1) | IC50 (p-ERK of PC-9 cells; Homo sapiens, PC-9, 1 h) | IC50 (p-ERK of PC-9 cells) | Compound
17 | ≤ 100 nM | ≤ 300 nM |  | CC(=O)N1CC=C(c2cc3c(N[C@H](C)c4cccc(C(F)F)c4F)ccnc3cn2)CC1 [Compound B-3]
18 | ≤ 100 nM | ≤ 300 nM |  | CC(=O)N1CCC(c2cc3c(N[C@H](C)c4cccc(C(F)F)c4F)ccnc3cn2)CC1 [Compound B-4]
19 | ≤ 100 nM | ≤ 300 nM |  | CC(=O)N1CCC(O)(c2cc3c(N[C@H](C)c4cccc(C(F)F)c4F)ccnc3cn2)CC1 [Compound B-17]
20 | ≤ 100 nM | 300 to 1000 nM |  | C[C@@H](Nc1ccnc2cnc(N3CCOCC3)cc12)c1cccc(C(F)F)c1F [Compound B-21]
21 | ≤ 100 nM | 300 to 1000 nM |  | C[C@@H](Nc1ccnc2cnc(N3CCNCC3)cc12)c1cccc(C(F)F)c1F [Compound B-22]
22 | ≤ 100 nM | ≤ 300 nM |  | CC(=O)N1CCN(c2cc3c(N[C@H](C)c4cccc(C(F)F)c4F)ccnc3cn2)CC1 [Compound B-23]
23 | ≤ 100 nM | ≤ 300 nM |  | C[C@@H](Nc1ccnc2cnc(N3CCC(O)CC3)cc12)c1cccc(C(F)F)c1F [Compound B-24]
24 |  | 300 to 1000 nM |  | C[C@@H](Nc1ccnc2cnc(N3CCn4ccnc4C3)cc12)c1cccc(C(F)F)c1F [Compound B-29]
25 |  | ≤ 300 nM |  | C[C@@H](Nc1ccnc2cnc(N3CCn4cncc4C3)cc12)c1cccc(C(F)F)c1F [Compound B-30]
26 | ≤ 100 nM | 300 to 1000 nM |  | C[C@@H](Nc1ccnc2cnc(N3CC[C@@H](N)C3)cc12)c1cccc(C(F)F)c1F [Compound B-31]
27 | ≤ 100 nM | ≤ 300 nM |  | CC(=O)N[C@@H]1CCN(c2cc3c(N[C@H](C)c4cccc(C(F)F)c4F)ccnc3cn2)C1 [Compound B-32]
28 | ≤ 100 nM | 300 to 1000 nM |  | C[C@@H](Nc1ccnc2cnc(N3CC[C@H](N)C3)cc12)c1cccc(C(F)F)c1F [Compound B-33]
29 |  | ≤ 300 nM |  | C[C@@H](O)C(=O)N1CCC(O)(c2cc3c(N[C@H](C)c4cccc(C(F)F)c4F)ccnc3cn2)CC1 [Compound B-120]
30 |  | > 1000 nM |  | C[C@@H](Nc1ccnc2cnc(C3(O)CCN(C(=O)C[C@@H]4CNCCO4)CC3)cc12)c1cccc(C(F)F)c1F [Compound B-142]
31 |  | > 1000 nM |  | C[C@@H](Nc1ccnc2cnc(C3(O)CCN(C(=O)C[C@H]4CNCCO4)CC3)cc12)c1cccc(C(F)F)c1F [Compound B-143]
32 |  | ≤ 300 nM |  | C[C@@H](Nc1ccnc2cnc(N3CCCS3(=O)=O)cc12)c1cccc(C#N)c1F [Compound B-166]

Reference: US20250042857A1, “SOS1 Inhibitor With Pyrido-Fused Six-Membered Ring Structure” (HAIHE BIOPHARMA CO., LTD., priority 2021, published 2025)
